{"source": "patent US4658029A", "about": "“1-Hpyrazolo[3,4-b]pyridines” (Hoechst-Roussel Pharmaceuticals Inc., priority 1986, dated 1987)"}
{"tested_on": "spontaneous hypertensive rat", "test": "Antihypertensive activity in the spontaneous hypertensive rat (SHR), indirect tail cuff method", "type": "in vivo", "details": "50 mg/kg, PO, treated orally for three days, drop measured on third day", "description": "The 6H-isoxazolo[5,4-d]pyrazolo[…] of formula I of the present invention are useful as antihypertensive agents due to their ability to depress blood pressure in mammals. Antihypertensive activity is measured in the spontaneous hypertensive rat by the indirect tail cuff method described in \"Methods in Pharmacology\", A. Schwartz, Ed., Vol. I, Appleton-Century Crofts, New York, N.Y., 1971, p. 135. In this procedure a group of five animals are treated orally for three days with the test compound in relation to a control group of the same number. The drop in blood pressure is measured on the third day following administration. The antihypertensive activities of some of the compounds, expressed as a decrease in mean arterial blood pressure (in mmHg), are given in Table I.", "units": {"Antihypertensive SHR (decrease in mean arterial blood pressure)": "mmHg"}}
{"compound": "C[C@](N)(Cc1ccc(O)c(O)c1)C(=O)O", "note": "[alpha-Methyldopa, reference compound]", "Antihypertensive SHR (decrease in mean arterial blood pressure)": 40}
{"compound": "CCn1ncc2c3onc(-c4cccc(C)c4)c3cnc21", "note": "[6-Ethyl-3-(3-tolyl)-6H-isoxazolo[5,4-d]pyrazolo[3,4-b]pyridine]", "Antihypertensive SHR (decrease in mean arterial blood pressure)": 33}
{"compound": "CCn1ncc2c3onc(-c4ccc(Cl)cc4)c3cnc21", "note": "[3-(4-Chlorophenyl)-6-ethyl-6H-isoxazolo[5,4-d]pyrazolo[3,4-b]pyridine]", "Antihypertensive SHR (decrease in mean arterial blood pressure)": 62}
{"compound": "CCn1ncc2c3onc(-c4ccc(OC)cc4)c3cnc21", "note": "[6-Ethyl-3-(4-methoxyphenyl)-6H-isoxazolo[5,4-d]pyrazolo[3,4-b]pyridine]", "Antihypertensive SHR (decrease in mean arterial blood pressure)": 31}
{"tested_on": "2-phenyl-1,4-benzoquinone-induced writhing", "test": "2-phenyl-1,4-benzoquinone-induced writhing test in mice (analgesic activity, PQW)", "type": "in vivo", "details": "20 mg/kg, SC", "units": {"Analgesic PQW, % decrease (phenylquinone writhing)": "%"}}
{"compound": "CCn1ncc2c3onc(-c4cccc(F)c4)c3cnc21", "note": "[6-Ethyl-3-(3-fluorophenyl)-6H-isoxazolo[5,4-d]pyrazolo[3,4-b]pyridine]", "Analgesic PQW, % decrease (phenylquinone writhing)": 55}
{"compound": "6-Ethyl-3-tolyl-6H-isoxazolo[5,4-d]pyrazolo[3,4-b]pyridine", "Analgesic PQW, % decrease (phenylquinone writhing)": 48}
{"compound": "CCn1ncc2c3onc(-c4cccc(O)c4)c3cnc21", "note": "[6-Ethyl-3-(3-hydroxyphenyl)-6H-isoxazolo[5,4-d]pyrazolo[3,4-b]pyridine]", "Analgesic PQW, % decrease (phenylquinone writhing)": 48}
{"compound": "CCn1ncc2c3onc(-c4ccccn4)c3cnc21", "note": "[6-Ethyl-3-(2-pyridyl)-6H-isoxazolo[5,4-d]pyrazolo[3,4-b]pyridine]", "Analgesic PQW, % decrease (phenylquinone writhing)": 42}
{"compound": "CCn1ncc2c3onc(-c4ccc(F)cc4)c3cnc21", "note": "[6-Ethyl-3-(4-fluorophenyl)-6H-isoxazolo[5,4-d]pyrazolo[3,4-b]pyridine]", "Analgesic PQW, % decrease (phenylquinone writhing)": 31}
{"tested_on": "2-phenyl-1,4-benzoquinone-induced writhing", "test": "2-phenyl-1,4-benzoquinone-induced writhing test in mice (analgesic activity, PQW)", "type": "in vivo", "details": "Mus musculus, sc, prior art compound, read-out: ED50 (phenylquinone writhing)", "units": {"ED50": "mg/kg"}}
{"compound": "CCC(=O)O[C@](Cc1ccccc1)(c1ccccc1)[C@H](C)CN(C)C", "note": "[Propoxyphene, reference compound]", "ED50": 3.9}
